# According to patent publication US10294202B2, “Pyrrolidinones as herbicides” (FMC Corporation, priority 2013, dated 2019):
# Tests used:
# giant foxtail = experiment: Test A pre-/postemergence herbicide test; format: in vivo, Setaria faberii; conditions: for Plant response rating, Foxtail, Giant: 0 to 100 scale
# Method in brief: (§1)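 Planted in loam–sand blend; treated the same day preemergence by directed soil spray, while separately grown plants at one- to two-leaf stage got postemergence spray. Compared visually with untreated controls after approximately 10 days; 100 means complete control.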
# johnsongrass = experiment: Test C pre-/postemergence herbicide test; format: in vivo, Sorghum halepense
# Method in brief: (§2)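 Test compounds, formulated in a surfactant-containing non-phytotoxic solvent blend, are applied to seeded loam/sand soil (preemergence) and to young plants at the 1- to 4-leaf stage in peat-based medium (postemergence). Plants stay 13 to 15 days under greenhouse conditions, then are scored visually relative to controls, 0 = no effect, 100 = complete control.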
# ragweed = experiment: Test C pre-/postemergence herbicide test; format: in vivo, Ambrosia elatior
# Method in brief: as §2
# corn = experiment: Test A pre-/postemergence herbicide test; format: in vivo, Zea mays; conditions: Postemergence
# Method in brief: as §1
# oat, wild = experiment: Test C pre-/postemergence herbicide test; format: in vivo, Avena fatua; conditions: Postemergence
# Method in brief: as §2
# ducksalad = experiment: Test B flooded paddy test; format: in vivo, Heteranthera limosa; conditions: 500 g ai/ha, Flood; scale of 0 to 100 where 0 is no effect and 100 is complete control
# Method in brief: (§3)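 Visual ratings from 0, meaning no effect, up to 100, meaning complete control, were made by comparison with untreated controls 13 to 15 days after treatment. Test compounds went straight into floodwater standing 3 cm over the soil of pots holding 2-leaf seedlings.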
# wheat (winter wheat) = experiment: Test C pre-/postemergence herbicide test; format: in vivo, Triticum aestivum
# Method in brief: as §2
# sedge, umbrella = experiment: Test B flooded paddy test; format: in vivo, Cyperus difformis; conditions: 500 g ai/ha, Flood; scale of 0 to 100 where 0 is no effect and 100 is complete control
# Method in brief: as §3
# lambsquarters = experiment: Test C pre-/postemergence herbicide test; format: in vivo, Chenopodium album
# Method in brief: as §2
# rice = experiment: Test B flooded paddy test; format: in vivo, Oryza sativa; conditions: 500 g ai/ha, Flood; scale of 0 to 100 where 0 is no effect and 100 is complete control
# Method in brief: as §3
# crabgrass, large = experiment: Test C pre-/postemergence herbicide test; format: in vivo, Digitaria sanguinalis
# Method in brief: as §2
# pigweed = experiment: Test C pre-/postemergence herbicide test; format: in vivo, Amaranthus retroflexus
# Method in brief: as §2
# [1] = Postemergence, 31 g ai/ha, scale 0 to 100 (0 no effect, 100 complete control)
# [2] = Postemergence, 62 g ai/ha, scale 0 (no effect) to 100 (complete control)
# [3] = Postemergence, 125 g ai/ha, scale 0 to 100 (0 no effect, 100 complete control)
# [4] = Postemergence, 250 g ai/ha, scale 0 to 100 (0 no effect, 100 complete control)
# [5] = Preemergence, 31 g ai/ha, scale 0 to 100, 0 is no effect and 100 is complete control
# [6] = Preemergence, 62 g ai/ha, scale 0 to 100 (0 no effect, 100 complete control)
# [7] = Preemergence, 125 g ai/ha, scale 0 to 100 (0 no effect, 100 complete control)
structure (smiles),measurement,setting,value
O=C1NCC(c2ccc(C(F)(F)F)cc2)C1C(=O)Nc1cccc(F)c1F (racemic) [Compound 202],"Plant response rating, Foxtail, Giant","giant foxtail; 125 g ai/ha, visual rating, 0 no effect, 100 complete control, approximately 10 days, preemergence",90
same,"Plant response rating, Foxtail, Giant","giant foxtail; Postemergence, 125 g ai/ha, 0 is no effect, 100 is complete control",90
same,"Foxtail, Giant plant response rating (0 to 100 scale, 0 is no effect, 100 is complete control)","giant foxtail; Postemergence, 500 g ai/ha",90
same,"Plant response rating, Foxtail, Giant","giant foxtail; preemergence, 500 g ai/ha, 0 is no effect and 100 is complete control",90
same,"Plant response rating, Johnsongrass",johnsongrass; [1],0
same,"Plant response rating, Johnsongrass",johnsongrass; [2],20
same,"Plant response rating, Johnsongrass",johnsongrass; [3],25
same,"Plant response rating, Johnsongrass",johnsongrass; [4],25
same,Johnsongrass plant response rating,johnsongrass; [5],10
same,Johnsongrass plant response rating,johnsongrass; [6],60
same,"Plant response rating, Johnsongrass",johnsongrass; [7],70
same,"Plant response rating (scale of 0 to 100), Johnsongrass","johnsongrass; Preemergence, 250 g ai/ha",85
same,"Plant response rating, Ragweed",ragweed; [1],70
same,"Plant response rating, Ragweed",ragweed; [2],75
same,"Plant response rating, Ragweed",ragweed; [3],80
same,"Plant response rating, Ragweed",ragweed; [4],85
same,Ragweed plant response rating,ragweed; [5],65
same,Ragweed plant response rating,ragweed; [6],85
same,"Plant response rating, Ragweed",ragweed; [7],85
same,"Plant response rating (scale of 0 to 100), Ragweed","ragweed; Preemergence, 250 g ai/ha",100
same,"Plant response rating, Corn","corn; 125 g ai/ha, 0 to 100 scale, 0 is no effect, 100 is complete control",80
same,"Corn plant response rating (0 to 100 scale, 0 is no effect, 100 is complete control)",corn; 500 g ai/ha,90
same,"Plant response rating, Oat, Wild","oat, wild; 31 g ai/ha, scale 0 to 100 (0 no effect, 100 complete control)",0
same,"Plant response rating, Oat, Wild","oat, wild; 62 g ai/ha, scale 0 (no effect) to 100 (complete control)",0
same,"Plant response rating, Oat, Wild","oat, wild; 125 g ai/ha, scale 0 to 100 (0 no effect, 100 complete control)",30
same,"Plant response rating, Oat, Wild","oat, wild; 250 g ai/ha, scale 0 to 100 (0 no effect, 100 complete control)",10
same,"Plant response rating, Ducksalad",ducksalad,100
same,"Plant response rating, Wheat",wheat (winter wheat); [1],0
same,"Plant response rating, Wheat",wheat (winter wheat); [2],0
same,"Plant response rating, Wheat",wheat (winter wheat); [3],0
same,"Plant response rating, Wheat",wheat (winter wheat); [4],5
same,Wheat plant response rating,wheat (winter wheat); [5],0
same,Wheat plant response rating,wheat (winter wheat); [6],30
same,"Plant response rating, Wheat",wheat (winter wheat); [7],55
same,"Plant response rating (scale of 0 to 100), Wheat","wheat (winter wheat); Preemergence, 250 g ai/ha",60
same,"Plant response rating, Sedge, Umbrella","sedge, umbrella",0
same,"Plant response rating, Lambsquarters",lambsquarters; [1],70
same,"Plant response rating, Lambsquarters",lambsquarters; [2],80
same,"Plant response rating, Lambsquarters",lambsquarters; [3],80
same,"Plant response rating, Lambsquarters",lambsquarters; [4],85
same,Lambsquarters plant response rating,lambsquarters; [5],80
same,Lambsquarters plant response rating,lambsquarters; [6],90
same,"Plant response rating, Lambsquarters",lambsquarters; [7],90
same,"Plant response rating (scale of 0 to 100), Lambsquarters","lambsquarters; Preemergence, 250 g ai/ha",100
same,"Plant response rating, Rice",rice,15
same,"Plant response rating, Crabgrass, Large","crabgrass, large; [1]",30
same,"Plant response rating, Crabgrass, Large","crabgrass, large; [2]",50
same,"Plant response rating, Crabgrass, Large","crabgrass, large; [3]",60
same,"Plant response rating, Crabgrass, Large","crabgrass, large; [4]",75
same,"Crabgrass, Large plant response rating","crabgrass, large; [5]",90
same,"Crabgrass, Large plant response rating","crabgrass, large; [6]",95
same,"Plant response rating, Crabgrass, Large","crabgrass, large; [7]",98
same,"Plant response rating (scale of 0 to 100), Crabgrass, Large","crabgrass, large; Preemergence, 250 g ai/ha",98
same,"Plant response rating, Pigweed",pigweed; [1],80
same,"Plant response rating, Pigweed",pigweed; [2],80
same,"Plant response rating, Pigweed",pigweed; [3],85
same,"Plant response rating, Pigweed",pigweed; [4],85
same,Pigweed plant response rating,pigweed; [5],85
same,Pigweed plant response rating,pigweed; [6],85
same,"Plant response rating, Pigweed",pigweed; [7],90
same,"Plant response rating (scale of 0 to 100), Pigweed","pigweed; Preemergence, 250 g ai/ha",100
